Test results: ChEMBL document CHEMBL5604063, “ASAP - DENV-2 NS2B-NS3 protease fluorescence dose response” (2024)
Values joined by “and” are separate entries in the source; they are usually repeats but may differ in a detail not shown here. Equal values may be shown once.

Target: Genome polyprotein (dengue virus type 2, UniProt P29990)
Type: functional, Thailand/16681/1984

Chain of Genome polyprotein (P29990 1346-1475 limits assumed): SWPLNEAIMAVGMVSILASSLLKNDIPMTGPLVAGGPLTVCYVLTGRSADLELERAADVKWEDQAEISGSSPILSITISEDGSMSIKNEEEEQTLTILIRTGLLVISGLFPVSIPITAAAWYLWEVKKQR
Chain of Genome polyprotein (P29990 1476-2093 limits assumed): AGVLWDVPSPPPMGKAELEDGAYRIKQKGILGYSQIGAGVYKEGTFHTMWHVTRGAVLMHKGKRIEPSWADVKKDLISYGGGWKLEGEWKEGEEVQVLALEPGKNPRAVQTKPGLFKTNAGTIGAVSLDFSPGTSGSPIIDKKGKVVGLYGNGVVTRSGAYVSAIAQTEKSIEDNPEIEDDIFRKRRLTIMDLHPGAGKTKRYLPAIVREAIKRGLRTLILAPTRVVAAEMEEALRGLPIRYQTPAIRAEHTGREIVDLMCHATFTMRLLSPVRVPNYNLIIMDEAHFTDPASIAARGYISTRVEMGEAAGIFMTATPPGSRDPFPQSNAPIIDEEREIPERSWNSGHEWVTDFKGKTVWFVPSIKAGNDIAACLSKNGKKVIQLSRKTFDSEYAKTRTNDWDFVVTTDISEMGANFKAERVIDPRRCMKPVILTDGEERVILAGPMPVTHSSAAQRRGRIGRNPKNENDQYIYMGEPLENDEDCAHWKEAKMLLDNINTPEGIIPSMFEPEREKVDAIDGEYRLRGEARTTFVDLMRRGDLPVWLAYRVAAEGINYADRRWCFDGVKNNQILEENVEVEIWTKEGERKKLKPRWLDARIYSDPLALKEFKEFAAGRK

SMILES	IC50
O=C(N[C@@H](C(=O)NCc1ccncc1)c1ccc(OCc2ccccc2)cc1)OCc1ccccc1	> 99.5 µM
O=C(O)c1ccc(F)c(F)c1NS(=O)(=O)c1ccc(Oc2ccccc2Cl)cc1	31.1 µM
Cc1nc(COc2ccc([C@@H](NC(=O)OCc3ccccc3)C(=O)Nc3cccc(CN)c3)cc2)cs1	> 99.5 µM
C[C@@H](Oc1ccc(S(=O)(=O)Nc2ccc(Cl)cc2C(=O)O)cc1)c1ccccc1F	8.2 µM
NC1CCN(C(=O)c2cc(Cl)cc(NC(=O)OCc3ccccc3)c2)CC1	> 99.5 µM
CCn1cc(-c2c[nH]c3ncccc23)nc(N2CC[C@@H](CO)C2)c1=O	> 99.5 µM
COc1nc(Cl)c(CSc2nc(C)co2)s1	> 99.5 µM
NCc1cccc(NC(=O)[C@H](NC(=O)OCc2ccccc2)c2ccc(Br)c(F)c2)c1	88.2 µM
NCc1cccc(NC(=O)[C@@H](NC(=O)OCc2ccccc2)c2ccc(-c3ccnc(N)c3)cc2)c1	> 99.5 µM
C[C@@H](NC(=O)c1cc(Cl)ccc1NS(=O)(=O)c1ccc(Oc2ccccc2Cl)cc1)[C@H]1CCCO1	> 99.5 µM
COc1ncccc1-c1cccc([C@H](NC(=O)OCc2ccccc2)C(=O)Nc2cccc(CN)c2)c1	> 99.5 µM
O=C(O)c1cc(Cl)ccc1NS(=O)(=O)c1ccc(Oc2ccccc2Cl)cc1	13.8 µM
NCc1cccc(NC(=O)[C@@]23C[C@@H](NC(=O)OCc4ccccc4)C[C@@H]2C3)c1	> 99.5 µM
NCc1cccc(NC(=O)[C@@H](NC(=O)OCc2ccccc2)c2ccc(F)cc2F)c1	> 99.5 µM
NCc1cccc(N2CCN(C(=O)OCc3ccccc3)[C@H](c3ccc(OCc4ccccc4)cc3)C2=O)c1	74.7 µM
O=C(O)c1cc(Cl)ccc1NS(=O)(=O)c1ccc(-c2ccc(F)cc2)cc1	12.5 µM
O=C(Nc1ccc2c(c1)CNC2)c1cc(F)cc(C2=CCCOC2)c1	> 99.5 µM
COc1ccc(-c2cc(NS(=O)(=O)c3ccc(Cl)cc3C(=O)O)ccc2OC)cc1	48.8 µM
CNC(=O)c1cc(Cl)ccc1NS(=O)(=O)c1cccc(Oc2ccccc2)c1	> 99.5 µM
NCc1nccc(NC(=O)c2cc(Cl)cc(NC(=O)OCc3ccccc3)c2)n1	> 99.5 µM
NCc1cccc(NC(=O)[C@H]2[C@H]3CCCCC[C@H]3[C@H]2NC(=O)OCc2ccccc2)c1	23.2 µM and 34.2 µM and 10.4 µM and 9.2 µM and 8.71 µM
C[C@]1(O)C(=O)Nc2cc(F)cc(C(=O)Nc3ccc4c(c3)CNC4)c21	> 99.5 µM

SMILES	IC50
O=C(N[C@@H](C(=O)Nc1cccnc1)c1ccc(OCc2ccccc2)cc1)OCc1ccccc1	> 99.5 µM
CN1CCc2ccc(C(=O)N3CCNc4ccccc4C3)cc2C1	> 99.5 µM
NCc1cccc(NC(=O)[C@@H](NC(=O)OCc2ccccc2)c2ccc(Br)c(Cl)c2)c1	9.1 µM and 8.4 µM
Cc1nccn1-c1ccc(NS(=O)(=O)c2ccc(Cl)cc2C(=O)O)cc1F	> 99.5 µM
Cc1cc(C)cc(C(=O)N2CCC(NS(=O)(=O)c3ccc(Cl)cc3C(=O)O)CC2)c1	> 99.5 µM
O=C(Nc1ccc2c(c1)CNC2)c1cc(F)c2[nH]c(=O)[nH]c2c1	> 99.5 µM
NC[C@H]1C[C@@H](NC(=O)c2cc(Cl)ccc2NS(=O)(=O)c2ccc(Oc3ccccc3Cl)cc2)C1	> 99.5 µM
CC(=O)N[C@@H](C(=O)Nc1cccc(CN)c1)c1ccc(OCc2ccccc2)cc1	> 99.5 µM
O=C(O)c1cc(Cl)c(F)cc1S(=O)(=O)Nc1ccc(Oc2ccccc2Cl)cc1	11.2 µM and 10.7 µM
COc1ccc(NS(=O)(=O)c2ccc(Cl)cc2C(=O)O)cc1S(=O)(=O)N1CCCC1	> 99.5 µM
NCc1cccc(NC(=O)[C@H](NC(=O)OCc2ccccc2)c2ccc(OCc3ccccc3)cc2)c1	8.05 µM
O=C(O)c1cc(Cl)ccc1S(=O)(=O)Nc1ccc(N2CCCCC2)c(Cl)c1	71.6 µM
Clc1cc(Cl)c2c(CN3CCC(c4cscn4)CC3)c[nH]c2c1	> 99.5 µM
Cn1ccnc(N2CCC(NS(=O)(=O)c3ccc(Cl)cc3C(=O)O)CC2)c1=O	> 99.5 µM
O=Cc1ccc(N2CCC(C(=O)N3CCN(c4ccc([N+](=O)[O-])cc4C(F)(F)F)CC3)CC2)cc1	> 99.9 µM
NCc1cccc(NC(=O)C[C@H](NC(=O)OCc2ccccc2)c2ccc(Cl)c(Br)c2)c1	22.8 µM and 22.9 µM and 12.9 µM and 12.6 µM
CCn1ccnc(N2C[C@H](c3c[nH]c4ccccc34)[C@H](OC(C)=O)C2)c1=O	> 99.5 µM
O=C(O)c1cc(Cl)ccc1S(=O)(=O)N[C@H]1CC[C@@H](Oc2cnccn2)CC1	> 99.5 µM
CCn1c(=O)c(N2CC[C@@H](CO)C2)nc2ccccc21	> 99.5 µM
CCn1c(=O)c(N2C[C@@H]3CN(C4CCC4)C[C@@H]3C2)nc2ccccc21	> 99.5 µM
COc1ccc(NS(=O)(=O)c2ccc(Cl)cc2C(=O)O)cc1-n1nnnc1C	> 99.5 µM
CC(C)[C@H](NC(=O)[C@@H]1CCCN1C(=O)OCc1ccccc1)P(=O)(Oc1ccc(F)cc1)Oc1ccc(F)cc1	> 99.5 µM

SMILES	IC50
CCn1c(=O)c(N2CCC[C@H]2c2cncc(Br)c2)nc2ccccc21	> 99.5 µM
c1ccc(COc2ccc3[nH]cc(CN4CCC(c5cscn5)CC4)c3c2)cc1	> 99.5 µM
COc1ncccc1-c1ccc([C@@H](NC(=O)OCc2ccccc2)C(=O)Nc2cccc(CN)c2)cc1	23 µM
CN(C)C[C@@]1(O)CCN(C(=O)c2cc(C=O)c[nH]2)C1	> 99.5 µM
C[C@@H](N)c1ccc(NC(=O)c2cc(Cl)cc(NC(=O)OCc3ccccc3)c2)cc1	48.2 µM
NCc1cccc(NC(=O)[C@H](NC(=O)OCc2ccccc2)c2cccc(-c3ccc(S(N)(=O)=O)cc3)c2)c1	> 99.5 µM
NCc1cccc(NC(=O)[C@@H]2C[C@@H]3CC[C@H]2N3C(=O)OCc2ccccc2)c1	> 99.5 µM
CN(C)[C@H]1CCc2cc(-c3cccc(N4CCNC4=O)c3)ccc2NC1	> 99.5 µM
COc1ccc(F)cc1-c1ccc(S(=O)(=O)Nc2cc(Cl)cc(C(=O)O)c2)cc1	89.9 µM
O=C(O)c1cc(Cl)ccc1S(=O)(=O)Nc1ccc(F)c(N2CCNC2=O)c1	> 99.5 µM
CCn1c(=O)c(N2CC[C@H](N3CCCS3(=O)=O)C2)nc2ccccc21	> 99.5 µM
O=C(Nc1cc(Cl)cc(C(=O)Nc2cccc(CO)c2)c1)OCc1ccccc1	> 99.5 µM
Cc1ncccc1-c1ccc([C@@H](NC(=O)OCc2ccccc2)C(=O)Nc2cccc(CN)c2)cc1	> 99.5 µM
COc1cc2c(CN3CCC(c4cscn4)CC3)c[nH]c2cc1Cl	> 99.5 µM
O=C(Nc1cc(Cl)cc(C(=O)Nc2ncc3n2CCNC3)c1)OCc1ccccc1	> 99.5 µM
CCSc1ccc(Cl)cc1C(=O)Nc1ccc2c(c1)CNC2	> 99.5 µM
NC[C@H]1CC[C@H](NC(=O)c2cc(Cl)cc(NC(=O)OCc3ccccc3)c2)CC1	> 99.5 µM
c1cnc2[nH]cc(C3CCN(Cc4c[nH]c5cnccc45)CC3)c2c1	> 99.5 µM
NCc1cccc(NC(=O)C[C@H](NC(=O)OCc2ccccc2)c2ccc(C(F)(F)F)cc2)c1	58.1 µM
CCn1cc(-c2ccc([C@@H](NC(=O)OCc3ccccc3)C(=O)Nc3cccc(CN)c3)cc2)cn1	> 99.5 µM
Cc1ccc(F)c(-c2ccc([C@@H](NC(=O)OCc3ccccc3)C(=O)Nc3cccc(CN)c3)cc2)c1	9.46 µM
CCn1ccnc(N2CC[C@@H](CC(N)=O)C2)c1=O	> 99.5 µM

SMILES	IC50
COc1ccc([C@@H](CC(=O)Nc2cccc(CN)c2)NC(=O)OCc2ccccc2)cc1Br	50.1 µM
NCc1ccc2c(c1)CCC[C@H]2NCc1cc(Cl)cc2c1OCC2	> 99.5 µM
Cc1noc(C)c1C(=O)N[C@@H](C(=O)Nc1cccc(CN)c1)c1ccc(OCc2ccccc2)cc1	> 99.5 µM
O=C(Nc1ccccc1)Oc1ccccc1 [PHENYL PHENYLCARBAMATE]	> 59.8 µM
O=C(Nc1ccccc1)OCc1ccccc1 [BENZYL PHENYLCARBAMATE]	> 99.5 µM
CNC(=O)c1cc(Cl)ccc1NS(=O)(=O)c1ccc(OC2CCCC2)nc1	> 99.5 µM
C[S@@+]([O-])c1nncn1Cc1ccc(Cl)s1	> 99.5 µM
Cc1cc(C)c(C(=O)N2C[C@H]3CN(C)CC[C@@]3(CO)C2)cc1C=O	> 99.5 µM
CCn1ccnc(N2CC[C@@H](Cc3ccncc3)C2)c1=O	> 99.5 µM
C[C@@H](NC(=O)c1ccc2[nH]cc(C=O)c2c1)C1=CCN(C)CC1	> 99.5 µM
O=C(N[C@H]1CCNC1=O)c1cc(Cl)ccc1NS(=O)(=O)c1ccc(Oc2ccccc2Cl)cc1	87.3 µM
CCn1ccnc(N2CC(=O)[C@@H](c3c[nH]c4ccccc34)C2)c1=O	> 99.5 µM
NCc1cccc(NC(=O)[C@H](NC(=O)C2CCCCC2)c2ccc(OCc3ccccc3)cc2)c1	17.6 µM and 20.7 µM and 12.3 µM
Cc1ocnc1COc1ccc(S(=O)(=O)Nc2ccc(Cl)cc2C(=O)O)cc1	> 99.5 µM
NCc1cccc(NC(=O)C[C@@H]2[C@H]3CC[C@H](C3)N2C(=O)OCc2ccccc2)c1	> 99.5 µM
CCOc1cccc(N2CC[C@@H](CO)C2)c1	> 99.5 µM
CS(=O)(=O)c1cccc(CNC(=O)[C@@H](NC(=O)OCc2ccccc2)c2ccc(OCc3ccccc3)cc2)c1	> 99.5 µM
CCn1ccnc(N2CCC(c3c[nH]c4ccccc34)CC2)c1=O	> 99.5 µM
O=C(Nc1cc(-c2cccnc2)ccn1)c1nc(Br)n2c1CNCC2	> 99.5 µM
Cc1cc(N2CCCCC2)ccc1NS(=O)(=O)c1ccc(Cl)cc1C(=O)O	> 99.5 µM
O=C(O)c1cc(Cl)ccc1S(=O)(=O)Nc1ccc(S(=O)(=O)Nc2ccccc2)cc1	> 99.5 µM
NC[C@@H]1CN(c2cc(-c3ccc(N)nc3)cc3c2COB3O)C(=O)O1	> 99.5 µM
